In the METLIN SMRT retention time set (Domingo-Almenara et al. 2019):

Assay: gradient 5% acetonitrile 3 min, to 50% in 2 min, to 85% in 15 min, held 3 min, 100 µL/min
Settings: column: Zorbax Extend-C18 2.1 x 50 mm; eluents: water / acetonitrile, 0.1% formic acid
In short: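 A Zorbax Extend-C18 column (2.1 × 50 mm, 1.8 μm) run at 100 μL/min with water and acetonitrile, both containing 0.1% formic acid, separated mixtures of ~100 pure standards. The HPLC was coupled to a quadrupole time-of-flight mass spectrometer operated in positive and negative ionization mode, with dead and dwell volumes of 40 μL and 900 μL. Each retention time was taken from a computationally picked adduct peak that was then manually inspected.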

SMILES | RP-LC retention time
O=C(CN1C(=O)C2CCCCN2c2ccc(S(=O)(=O)N3CCCC3)cc21)N1CCOCC1 (stereo unspecified) | 750 s
N#CCc1cnc2ccccc2n1 | 720 s
CCOCC(=O)N1C[C@@H]2CCCN3CCC[C@@H]([C@H]23)[C@H]1CCCC(=O)NCC1CC1 | 574 s
CCN(CC)C(=O)c1ccc2c(c1)N(CC(=O)NCc1ccc3c(c1)OCO3)C(=O)C1CCCCN21 (stereo unspecified) | 826 s
Cc1cc(C(=O)NCC2CCN(C(=O)NC(C)(C)C)CC2)c(C)o1 | 699 s
O=C1Nc2ccccc2C12OCC1(CO2)COC2(OC1)C(=O)Nc1ccccc12 (stereo unspecified) | 784 s
COCc1cc(=O)n(Cc2ncc(C)c(OC)c2C)c(N2CCCC2)n1 | 608 s
O=C1/C(=C\c2ccc(O)c(O)c2)Oc2c1ccc(O[C@@H]1O[C@H](CO)[C@@H](O)[C@H](O)[C@H]1O)c2O | 638 s
CCOC(=O)CNC(=O)N1CCc2c(c(C(=O)N3CCCC3)nn2C)C1 | 637 s
O=C(c1nnc(-c2ccc(S(=O)(=O)N3CCOCC3)cc2)o1)N1CCCCC1 | 785 s
CCn1cnc(S(=O)(=O)N2CCC(C(=O)N3CCN(c4cc(C)ccc4C)CC3)CC2)c1 | 878 s
Cc1sc(-c2cc(C(F)(F)F)on2)cc1S(=O)(=O)N1CCN(c2cccc(Cl)c2)CC1 | 1440 s
O=C1C(OC2CCN(Cc3cc(F)ccc3F)CC2)CCN1C1CCCC1 (stereo unspecified) | 641 s
Cc1ccc(N2CC(c3nc(-c4cccs4)no3)CC2=O)cc1 (stereo unspecified) | 877 s
CCCN1C(=O)c2cc(S(=O)(=O)N3CCOCC3)ccc2Oc2cccnc21 | 926 s
Cc1ccc(Nc2c(-c3ccc(N4CCOCC4)cc3)nc3cccc(C)n23)cc1 | 746 s
Cc1nn(CC(=O)N2CCN(c3ccc(Cl)cc3)CC2)c(=O)c2nc(C(C)C)sc12 | 921 s

Further lines, results first:

RP-LC retention time | SMILES
772 s | COc1cccc2sc(N(C)CC(=O)NCCc3cccs3)nc12
821 s | Cn1ccc2cc(S(=O)(=O)N3CCC(C(=O)N4CCN(c5ncccn5)CC4)CC3)ccc21
669 s | CN(C1=NC(=O)/C(=C/c2cc(Cl)ccc2OCC(=O)O)S1)c1ccc(O)cc1
578 s | Cc1ccc(NC(=O)N2CCc3nc[nH]c3C2)c(C)c1
832 s | Cc1cc(C)n(-c2ccnc(N3CCC(C(=O)NCc4ccccc4)CC3)n2)n1
806 s | O=C(Nc1cccc(F)c1)C1CCCN(c2nnc3ccc(Cl)cn23)C1 (stereo unspecified)
988 s | COCCNC(=O)Cn1cccc1-c1nc(-c2ccc(Cl)cc2)cs1
1080 s | CCCN1C(=O)c2cc(S(=O)(=O)Nc3ccc(C)cc3F)ccc2Oc2cccnc21
794 s | CCC(=O)N(C)CCc1noc(-c2ccc(C(=O)NC3CCCCCC3)cc2)n1
984 s | CCc1nn2c(CNS(=O)(=O)c3ccc(C)c(C)c3)c(-c3ccccc3)nc2s1
638 s | COCc1nc2cccnc2n1C1CCN(C(=O)Nc2ccc(OC)c(OC)c2)CC1
1040 s | CN1C(=O)CCc2cc(NS(=O)(=O)c3ccc(Cl)c(Cl)c3)ccc21
1030 s | COc1ccc(Cl)cc1-c1nc(C2CC(=O)N(c3ccc(F)cc3)C2)no1 (stereo unspecified)
748 s | COc1cc(NC(=O)Cn2c(C)cc(-c3nnc(C)o3)c2C)cc(OC)c1
976 s | COc1cc(NC(=O)C(=O)c2cccn2C)cc(OC)c1
1400 s | CCCN(C(=O)Nc1ccccc1[N+](=O)[O-])c1nc(-c2ccccc2)cs1
855 s | O=C(CCC(=O)N1CC2CCCN2c2ccccc21)NCc1ccc2c(c1)OCO2 (stereo unspecified)
570 s | COc1ccc(Nc2cc(C(=O)N3CCCCC3)nc3c(OC)cccc23)cc1OC
698 s | O=C(Cn1c(=O)c2cc(-c3ccco3)nn2c2ncccc21)NC1CCCC1
